From patent US10118935B2, “Melampomagnolide B dimers” (priority 2014, dated 2018)

Legend:
SK-OV-3 = assay: NCI 60 cell line five dose, Ovarian Cancer
UACC-62 = assay: NCI 60 cell line five dose, Melanoma
SK-MEL-28 = assay: NCI 60 cell line five dose, Melanoma; details: SK-MEL-28
MDA-MB-231/ATCC = assay: NCI 60 cell line five dose, Breast Cancer
SW-620 = assay: NCI 60 cell line five dose, Colon Cancer
HCC-2998 = assay: NCI 60 cell line five dose, Colon Cancer
MDA-MB-435 = assay: NCI 60 cell line five dose, Melanoma
KM12 = assay: NCI 60 cell line five dose, Colon Cancer
SK-MEL-5 = assay: NCI 60 cell line five dose, Melanoma; details: SK-MEL-5
K-562 = assay: NCI 60 cell line five dose, Leukemia
NCI-H322M = assay: NCI 60 cell line five dose, Non-Small Cell Lung Cancer
[1] = test system: panel of 60 human cancer cell lines; assay: Five-dose growth inhibition, panel; type: cell-based
SF-268 = assay: NCI 60 cell line five dose, CNS Cancer
U251 = assay: NCI 60 cell line five dose, CNS Cancer
UO-31 = assay: NCI 60 cell line five dose, Renal Cancer
HCT-15 = assay: NCI 60 cell line five dose, Colon Cancer
MALME-3M = assay: NCI 60 cell line five dose, Melanoma; details: MALME-3M
ACHN = assay: NCI 60 cell line five dose, Renal Cancer
NCI-H522 = assay: NCI 60 cell line five dose, Non-Small Cell Lung Cancer
OVCAR-4 = assay: NCI 60 cell line five dose, Ovarian Cancer
BT-549 = assay: NCI 60 cell line five dose, Breast Cancer
SR = assay: NCI 60 cell line five dose, Leukemia
COLO 205 = assay: NCI 60 cell line five dose, Colon Cancer

**Q.** Which results are given for `C=C1C(=O)O[C@H]2[C@H]1CC/C(COC(=O)CCC(=O)NCCCCCCCCCNC(=O)CCC(=O)OC/C1=C/CC[C@@]3(C)O[C@H]3[C@H]3OC(=O)C(=C)[C@@H]3CC1)=C\CC[C@@]1(C)O[C@@H]21` [JVM 2-92, bis(((1aR,7aS,10aS,10bS,E)-1a-Methyl-8-methylene-9-oxo-1a,2,3,6,7,7a,8,9,10a,10b-decahydrooxireno[2′,3′:9,10]cyclodeca[1,2-b]furan-5-yl)methyl)4,4′-(nonane-1,9-diylbis(azanediyl))bis (4-oxobutanoate)]?
**A.** GI50 (SK-OV-3): 5800 nM; TGI (SK-OV-3): 19200 nM; GI50 (UACC-62): 1690 nM; TGI (UACC-62): 3780 nM; GI50 (SK-MEL-28): 1470 nM; TGI (SK-MEL-28): 3030 nM; GI50 (MDA-MB-231/ATCC): 1580 nM; TGI (MDA-MB-231/ATCC): 4050 nM; GI50 (SW-620): 540 nM; TGI (SW-620): 2070 nM; GI50 (HCC-2998): 2250 nM; TGI (HCC-2998): 4700 nM; CC50 (SNB-19): > 100000 nM; GI50 (SNB-19; SNB-19): 3380 nM; TGI (SNB-19; SNB-19): 16300 nM; GI50 (MDA-MB-435): 1630 nM; TGI (MDA-MB-435): 3440 nM; GI50 (KM12): 4600 nM; TGI (KM12): 17100 nM; GI50 (SK-MEL-5): 1880 nM; TGI (SK-MEL-5): 4190 nM; GI50 (K-562): 450 nM; TGI (K-562): 3210 nM; GI50 (NCI-H322M): 16300 nM; TGI (NCI-H322M): 31600 nM; growth inhibition ([1]; NCI-H522, SW-620, LOX IMVI, MCF7, BT-549, MDA-MB-468): nano-molar range; growth inhibition ([1]; all hematological leukemia cell lines): nanomolar range; GI50 (SF-268): 2920 nM; TGI (SF-268): 10100 nM; GI50 (U251): 3010 nM; TGI (U251): 9250 nM; GI50 (UO-31): 3900 nM; TGI (UO-31): 16100 nM; GI50 (HCT-15): 2630 nM; TGI (HCT-15): 11900 nM; GI50 (MALME-3M): 1940 nM; TGI (MALME-3M): 4170 nM; GI50 (ACHN): 2100 nM; TGI (ACHN): 5160 nM; GI50 (NCI-H522): 420 nM; TGI (NCI-H522): 1640 nM; GI50 (OVCAR-4): 1480 nM; TGI (OVCAR-4): 3460 nM; GI50 (BT-549): 660 nM; TGI (BT-549): 2030 nM; GI50 (SR): 330 nM; TGI (SR): 1170 nM; GI50 (COLO 205): 1220 nM; TGI (COLO 205): 3160 nM
